In patent US20240026268A1, “MICROFLUIDIC HANGING DROP CULTURE DEVICE FOR CULTURING CELL AGGREGATE” (CELLARTGEN INC., priority 2021, published 2024):

What was measured:
[1] = tested on: human iPSC-derived nonalcoholic steatohepatitis organoids; experiment: Effective drug test on human iPSC-derived nonalcoholic steatohepatitis organoids (HEMKS) in 100-well HD chip: qPCR, immunostaining, BODIPY; format: cell-based; settings: oleic acid 500 μM + ezetimibe 50 μM for 2 days
Description: Human iPSC-derived liver organoids (HEMKS) were fabricated in the high-throughput 100-well HD chip. Then, a normal group was cultured in a normal culture medium for 7 days, whereas a nonalcoholic steatohepatitis (NASH) group was normally cultured for 5 days and then further cultured for 2 days in the culture medium mixed with 500 μM oleic acid, a free fatty acid, to induce steatohepatitis. Ezetimibe (Eze), an effective drug for treatment of fatty liver, is a drug candidate group that serves as a cholesterol absorption inhibitor and is conventionally used to treat high blood cholesterol and lipid abnormalities. After 5 days of normal culture, oleic acid (500 μM) and ezetimibe (50 μM) were mixed in the culture medium, followed by additional culture for 2 days to test the drug for steatohepatitis. After a total of 7 days of culture, the degree of fat accumulation was compared and the maker expression and gene expression were compared between groups by immunostaining and quantitative PCR analysis. For more accurate steatohepatitis modeling and drug screening, liver organoids containing immune cells (Kupffer cells) and mesenchymal cells (hepatic stellate cells) constituting a liver tissue microenvironment were fabricated. To this end, human iPSC-derived liver organoids were fabricated at a ratio of iPSC hepatic cells (H): vascular endothelial cells (E): mesenchymal stem cells (M): iPSC-derived Kupffer cells (K): iPSC-derived hepatic stellate cells (S)=10:7:2:2:1 (HEMKS).

[2] = tested on: human iPSC-derived nonalcoholic steatohepatitis organoids; experiment: ROS quantitative analysis by CM-H2DCFDA staining of NASH organoids in 100-well HD chip; format: cell-based; settings: NASH+Eze versus NASH organoid
Description: To check the accumulation of reactive oxygen species (ROS) caused by oxidative stress in Normal, NASH and NASH+Eze human iPSC-derived liver organoids (HEMKS) fabricated in the high-throughput 100-well HD chip by the same culture method as described above, ROS activity and quantitative analysis between the groups was performed by CM-H2DCFDA staining, which is oxidative stress detection assay.
The high-throughput HD chip was designed and fabricated with the same dimensions as a commercially available conventional 384-well plate.

[3] = quantitative PCR, versus NASH group

With `O=C1[C@H](CC[C@H](O)c2ccc(F)cc2)[C@@H](c2ccc(O)cc2)N1c1ccc(F)cc1` [Eze, Ezetimibe] the “expression level of ALB, a hepatic differentiation marker” value ([1]; immunostaining, versus NASH organoid) was “recovered to a certain level”, the “fatty acid accumulation (BODIPY fluorescence signal labeling lipid)” value ([1]; versus NASH organoid) was “decreased” and the “expression level of PLIN2, a fatty acid accumulation marker” value [1, 3] was “decreased”. For the same compound, the “expression level of SMA, liver fibrosis marker” value [1, 3] was “decreased”, the “expression level of TNF-α, an inflammation marker” value [1, 3] was “decreased” and the “expression level of VIM, liver fibrosis marker” value [1, 3] was “decreased”. For the same compound, the “oxidative stress caused by ROS” value ([2]; CM-H2DCFDA staining, imaging) was “decreased to a certain level or less” and the “fluorescence intensity (ROS oxidative stress)” value ([2]; on-chip analysis with plate reader) was “decreased”.
